Assays:
Format in all cases: cell-based, mouse
PyMT tumorspheres = assay: PyMT tumorsphere viability, apoptosis, cell cycle and western blot
Method: FIG. 14A, Spheres were treated with vehicle or indicated concentrations of C26-A6 for 1 week. The viability of the spheres was then quantified by MTT assay.
For FIGS. 14B-14I, similar sphere assay as in FIG. 14A was performed. n≥3 independent experiments. Data represent mean±SEM and significance determined by two tailed Student's t-test for all panels in FIGS. 14B-14I.
FIG. 15C, Sphere assay was performed and treated with vehicle and C26-A6 as in FIG. 14A. The spheres were collected for western blot to analyze the expression of the candidates.
To obtain insights into the molecular mechanism underlying C26-A6 treatment-induced reduction of cell viability and increase of apoptosis, in vitro sphere assays were employed. […] To further explore the downstream effectors of tumor-suppressive response to C26-A6, GSEA analysis of PyMT tumor with or without C26-A6 treatment was performed.

[1] = test system: Py8119-OVA cells co-cultured with OT-I splenocytes; assay: Py8119-OVA tumor cell / OT-I splenocyte co-culture; conditions: 200 μM
Method: FIG. 22C, Py8119-OVA cells co-cultured with OT-I splenocytes were treated with 200 μM of C26-A6 or same amount of vehicle. The binding between MTDH and Tap1/2 in tumor cells were determined by RIP assay.
FIG. 22D, Tap1/2 RNAs that bind to MTDH in (c) were quantified and normalized to the pulled down MTDH levels.
FIG. 22E, Tap1/2 levels in Py8119-OVA cells with/without 200 μM of C26-A6 treatment during co-culture were examined by qRT-PCR.
FIG. 22F, OVA (H-2K^b-SIINFEKL) presentation in Py8119-OVA cells with/without 200 μM of C26-A6 treatment in co-culture were determined by flow cytometry. MFI, Mean Fluorescence Intensity; AU, arbitrary units.
FIG. 22G, Media in (E) was collected for IFN-γ ELISA and cytotoxicity assay. AU, arbitrary units.
FIG. 32B, Py8119-OVA cells co-cultured with OT-I splenocytes were treated with 200 μM of C26-A6 or same amount of vehicle. The binding between SND1 and Tap1/2 in tumor cells were determined by RIP assay.
FIG. 32C, Tap1/2 RNAs that bind to SND1 were quantified and normalized to the pulled down SND1 levels.
FIG. 32D, MHC-I presentation in Py8119-OVA cells with/without 200 μM of C26-A6 treatment in co-culture were determined by flow cytometry. MFI, mean fluorescence intensity; AU, arbitrary units.
FIGS. 32E, The expression of CD137 in splenocytes co-cultured with Py8119-OVA was determined by flow cytometry upon 200 μM of C26-A6 or vehicle treatment.
FIGS. 32F, The expression of IFN-γ in splenocytes co-cultured with Py8119-OVA were determined by flow cytometry upon 200 μM of C26-A6 or vehicle treatment.
Immune cell and tumor cell co-culture assay. Py8119-OVA tumor cells with various MTDH expression status were plated in 6-well plates for in vitro co-culture in DMEM/F12 media listed above. Once cells reached 50-75% confluency OT-I splenocytes or CD8^+ T cells were added to the tumor cells at the 1:10 ratio (tumor cell. immune cell). After 24 hr of co-culture, the cells and culture media were collected for further experiments.
RNA-Binding immunoprecipitation (RIP) and western blot (WB). Py8119-OVA tumor cells after co-culture for 24 hr were collected for RIP using RNA-Binding Protein Immunoprecipitation Kit (Millipore, #17-700). Briefly, 5×10^7 tumor cells were resuspended with 200 μL of RIP lysis buffer and frozen at −80° C. for at least 1 hr to lyse the cells. The sample was then centrifuged at 14,000 rpm for 10 min at 4° C. 20 μL of supernatant was transferred to two new tubes with 10 μL each and frozen at −80° C. to serve as input of total. The rest of the supernatant was diluted with 1.8 ml of RIP immunoprecipitation buffer and split equally into two 1.5 ml EP tubes. 5 μg of MTDH (Invitrogen, catalogue #40-6500), SND1 (Santa Cruz, catalogue #sc-271590) or IgG (provided in the Kit) antibody was added into each tube and incubated at 4° C. overnight. The next day, 50 μL of magnetic beads was added and incubated for another 2 hr. The beads were then washed with 500 μL of RIP wash buffer on a magnetic separator for 5 times. During the final wash, 25 μL of the beads in the wash buffer was transferred into a new tube, stored at −80° C. to serve as input of IP. The rest of the beads together and 10 μL input of total were resuspended with 300 μL of proteinase K buffer respectively and incubated at 55° C. for 30 min to degrade proteins. RNA was extracted with phenol:chloroform:isoamyl alcohol and precipitated with 100 μL of Salt Solution I, 30 μL of Salt Solution II, and 10 μL of Precipitation Enhancer at −80° C. overnight. […]

[2] = test system: E0771-OVA control (shCtrl) cells; assay: E0771-OVA shCtrl cells / OT-I splenocyte co-culture; conditions: 24 hr co-culture
Text: For FIGS. 33B-33D, E0771-OVA cells with (shTap1/2) or without (shCtrl) Tap1/2 knockdown were co-cultured with OT-I splenocytes with the ratio of 1:10 (tumor cells:splenocytes). Data represent mean±SEM. n=3 independent experiments. Significance determined by one-way ANOVA analysis with Sidak's test for multiple comparisons.
FIG. 33B, 24 hr after co-culture, tumor cells were collected for examining OVA (H-2K^b-SIINFEKL) expression.
FIG. 33C, 24 hr after co-culture, tumor cells were collected for examining MHC-I expression.
FIG. 33D, 24 hr after co-culture, splenocytes were collected for examining CD137 expression.
MTDH-SND1 suppresses antigen presentation by reducing Tap1/2. To confirm that MTDH-SND1 drives immune evasion through suppressing the Tap1/2 pathway, antigen presentation-deficient cells were generated by knocking down Tap1/2^20. E0771-OVA cells were transduced with lentiviruses expressing Tap1/2-targeting shRNAs. Tap1/2 KD was confirmed by western blot (FIG. 33A), and antigen presentation deficiency upon Tap1/2 KD was also validated (FIGS. 33B, 33C). Next, shCtrl (control shRNA) or Tap1/2 KD cells were co-cultured with OT-I splenocytes together with vehicle or C26-A6 treatment.

COc1ccc(Cl)cc1S(=O)(=O)Nc1cccn2nc(C)nc12 [Analog C26-A6]
Cdc20, Plk1, and c-Myc expression (western blot) (PyMT tumorspheres): down-regulated | cell cycle status (PyMT tumorspheres; 200 μM): induced G2/M cell cycle arrest | survival (live cells, apoptosis) (PyMT tumorspheres; 200 μM): significantly reduced survival | sphere viability (MTT assay), tumorspheres versus MECs (PyMT tumorspheres; indicated concentrations, 1 week): more susceptible | OVA antigen and MHC-I complex presentation (flow cytometry) [1]: promotes OVA antigen and MHC-I complex presentation | T cell activation (CD137, IFN-γ) [1]: promotes | Tap1/2 binding of MTDH and SND1 (RIP assay) [1]: decreased the Tap1/2 binding of MTDH and SND1 | Tap1/2 mRNA expression level (qRT-PCR) [1]: increased the expression level of these mRNAs | immune clearance of tumor cells (cytotoxicity assay) [1]: sensitizes the tumor cells to immune clearance | antigen presentation and T cell activation [2]: significant increase

From patent US20240398767A1, “INHIBITORS OF THE MTDH-SND1 PROTEIN COMPLEX FOR CANCER THERAPY” (The Trustees of Princeton University, priority 2021, published 2024)
